Columns and labels:
[1] = tested on: wild type (S-416) sesame plants; assay: Herbicides dose-response assay (post-emergence, pots), wild type; type: in vivo, Sesamum indicum; conditions: for ED50 WT: herbicide rate reducing plant growth (shoot DW) by 50%, 16 DAT, sprayed at two true leaves, n=5; for response of WT plants in dose-response assay: increasing doses
[2] = tested on: SiRM plants (mutant SiALS Ala188Val); conditions: for ED50 SiRM: herbicide rate reducing plant growth (shoot DW) by 50%, 16 DAT, n=5, calculated from fitted curve, for Imazamox above the tested rates; for RI (resistance index): resistance/susceptible ratio of the ED50 (SiRM vs WT); for response of SiRM plants in dose-response assay: increasing doses

| SMILES | effect on WT plants at field recommended dosage ([1]; 20 g a.i. h^−1) | ED50 WT [1] [g a.i. ha^−1] | state of SiRM plants at the highest dosage ([2]; 160 g a.i. h^−1) | ED50 SiRM [2] [g a.i. ha^−1] | dose up to which SiRM plants were not affected ([2]; post-emergence dose-response) [g a.i. h^−1] | RI (resistance index) [2] | response of WT plants in dose-response assay [1] | response of SiRM plants in dose-response assay [2] | reduction in shoot length, SiRM ([2]; under the recommended dose) [%] | reduction in shoot DW, WT ([1]; under the recommended dose) [%] | reduction in shoot length, WT ([1]; under the recommended dose) [%] | reduction in shoot DW, SiRM ([2]; under the recommended dose) [%] |
| --- | --- | --- | --- | --- | --- | --- | --- | --- | --- | --- | --- | --- |
| CCc1cnc(C2=NC(C)(C(C)C)C(=O)N2)c(C(=O)O)c1 (stereo not drawn) [Imazethapyr, 5-ethyl-2-(4-methyl-5-oxo-4-propan-2-yl-1H-imidazol-2-yl) pyridine-3-carboxylic acid] | deadly for the plants | 3.7 | viable and fully recovered | 161 | ≤ 80 | 48 |  |  |  |  |  |  |
| CCCOc1nn(C(=O)NS(=O)(=O)c2ccccc2C(=O)OC)c(=O)n1C [Propoxycarbazone, methyl 2-[(4-methyl-5-oxo-3-propoxy-1,2,4-triazole-1-carbonyl)sulfamoyl]benzoate] |  | 12 |  | 96 |  | 8 | severe response of the WT plants already at a low dose of ⅛X | able to maintain growth (and develop flowering buds) up to the recommended dose |  |  |  |  |
| COc1cc(OC)nc(Sc2cccc(Cl)c2C(=O)O)n1 [Pyrithiobac sodium, sodium;2-chloro-6-(4,6-dimethoxypyrimidin-2-yl)sulfanylbenzoate] |  | 9.8 |  | 202 |  | 20.5 | lethal for both lines | able to survive up to the recommended dose | 66 |  |  |  |
| COc1cc(OC)nc(NC(=O)NS(=O)(=O)c2ncccc2OCC(F)(F)F)n1 [Trifloxysulfuron, 1-(4,6-dimethoxypyrimidin-2-yl)-3-[3-(2,2,2-trifluoroethoxy)pyridin-2-yl]sulfonylurea] |  | 33 |  | 69 |  | 2 |  |  | 7 | 63 | 74 | 18 |
